Data on 31 molecules can be found in patent US20180118756A1, “COMPOSITIONS AND METHODS OF MODULATING SHORT-CHAIN DEHYDROGENASE ACTIVITY” (CASE WESTERN RESERVE UNIVERSITY, priority 2015, published 2018).

Data set [1] is described as follows: aqueous solubility in pH 7 or pH 4 citrate buffer solution. It counts as physicochemical.
A further data set concerns the target T1, recombinant 15-PGDH (Homo sapiens, UniProt P15428).
T1 sequence (P15428 1-266): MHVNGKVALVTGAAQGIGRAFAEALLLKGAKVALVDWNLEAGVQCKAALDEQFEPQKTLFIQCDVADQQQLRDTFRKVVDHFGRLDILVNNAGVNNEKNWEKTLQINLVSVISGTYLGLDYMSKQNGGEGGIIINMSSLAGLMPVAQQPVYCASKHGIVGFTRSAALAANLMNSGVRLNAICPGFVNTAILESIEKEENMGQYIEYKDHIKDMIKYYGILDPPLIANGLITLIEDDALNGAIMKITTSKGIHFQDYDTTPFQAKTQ
Kind of data set: IC50 for inhibiting enzymatic activity of recombinant 15-PGDH in an in vitro assay. The data set is classed as biochemical. To be noted: recombinant human 15-PGDH at 5 nM; for IC50: in vitro.

The mark [2] stands for this setting: citrate buffer solution, pH 4, aqueous buffer, pH 4 citrate buffer solution, read-out: pH 4 solubility.
Setting [3] is: citrate buffer solution, pH 7, aqueous buffer, pH 7 citrate buffer solution, read-out: pH 7 solubility.
Where [4] appears, read: read-out: Enzyme Inhibitor IC50 (nM) at 5 nM 15-PGDH.
Setting [5] is: Enzyme Inhibitor IC50 (nM) at 5 nM 15-PGDH.

Converted amounts (≈) assume the structure as drawn. Read-outs that look alike come from different tables or passages of the source.

By solubility is commonly meant how much of the substance goes into solution per volume. A word on the IC50: it is the midpoint of a concentration-inhibition curve.

On to `CCCC[S+]([O-])c1sc2nc(-c3nccs3)cc(-c3cnc(C4CC4)n3C)c2c1N` (single isomer, unassigned) [SW 212345], for which the solubility in data set [1] (setting [2]) is 164 µg/mL (≈ 358 µM); in data set [1] (setting [3]) it was 4 µg/mL (≈ 8.74 µM).
`CCCC[S+]([O-])c1sc2nc(-c3nccs3)cc(-c3cnc(C)n3C)c2c1N` (single isomer, unassigned; (+)) [(+)-(R)- SW 209415]: the “pH 7 solubility (μg/mL)” value in data set [1] (pH 7 citrate buffer solution) is 2 μg/mL.
Take `CCCC[S+]([O-])c1sc2nc(-c3nccs3)ccc2c1N` (stereo not shown) [SW 206992]: in data set [1] (setting [3]), the solubility was found to be 4.76 µg/mL (≈ 14.1 µM).
Same read-out and setting: next, `CCCC[S+]([O-])c1sc2nc(-c3cccs3)cc(C)c2c1N` (stereo not shown) [SW 208488]: 2.6 µg/mL (≈ 7.42 µM); `CCCC[S+]([O-])c1sc2nc(-c3ncco3)cc(-c3ccccc3)c2c1N` (stereo not shown) [SW 208496]: 2.2 µg/mL (≈ 5.53 µM).
Regarding `CC(C)[S+]([O-])c1sc2nc(-c3ncco3)cc(-c3ccccc3)c2c1N` (stereo not shown) [SW 208660], the IC50 on recombinant 15-PGDH (setting [4]) came to 2.86 nM. For the same molecule, the solubility in data set [1] (setting [3]) was 11.6 µg/mL (≈ 30.2 µM).
In the same order, the values of `Cc1cc(-c2nccs2)nc2sc([S+]([O-])C(C)C)c(N)c12` (stereo not shown) [SW 208664] are 7.62 nM and 9.7 µg/mL (≈ 28.7 µM).
`CCCC[S+]([O-])c1sc2nc(-c3nccs3)cc(-c3cccnc3)c2c1N` (stereo not shown) [SW 208777]: the results for the solubility in data set [1] (setting [2]) and in data set [1] (setting [3]) were 3.8 µg/mL (≈ 9.17 µM) and 3.4 µg/mL (≈ 8.2 µM), respectively.
In the same order, the values of `CC(C)[S+]([O-])c1sc2nc(-c3nccs3)cc(-c3cccnc3)c2c1N` (stereo not shown) [SW 208778] are 26 µg/mL (≈ 64.9 µM) and 9.9 µg/mL (≈ 24.7 µM).
As for `CC(C)[S+]([O-])c1sc2nc(-c3nccs3)cc(-c3ccccc3)c2c1N` (stereo not shown) [SW 208780], the IC50 on recombinant 15-PGDH (setting [4]) was 5.55 nM. The solubility in data set [1] (setting [3]) was 0.65 µg/mL (≈ 1.63 µM).
In the case of `CCCC[S+]([O-])c1sc2nc(-c3nccs3)cc(-c3nccn3C)c2c1N` (stereo not shown) [SW 209125], the solubility in data set [1] (setting [2]) was found to be 31.6 µg/mL (≈ 75.7 µM).
`CC(C)[S+]([O-])c1sc2nc(-c3nccs3)cc(-c3nccn3C)c2c1N` (stereo not shown) [SW 209279]: the solubility in data set [1] (setting [2]) amounted to 73 µg/mL (≈ 181 µM); in data set [1] (setting [3]), 37.7 µg/mL (≈ 93.4 µM).
In the same order, the values of `CCC[S+]([O-])c1sc2nc(-c3nccs3)cc(-c3nccn3C)c2c1N` (stereo not shown) [SW 209280] are 88 µg/mL (≈ 218 µM) and 17 µg/mL (≈ 42.1 µM).
The like results for `CCCC[S+]([O-])c1sc2nc(-c3nccs3)cc(-c3cnc(C)n3C)c2c1N` (stereo not shown) [SW 209415, 2-(butylsulfinyl)-4-(1,2-dimethyl-1H-imidazol-5-yl)-6-(thiazol-2-yl)thieno[2,3-b]pyridin-3-amine] were, in that order, 241 µg/mL (≈ 558 µM) and 54.3 µg/mL (≈ 126 µM).
For the molecule `CCCC[S+]([O-])c1sc2nc(-c3nccs3)cc(-c3cccc(CO)c3)c2c1N` (stereo not shown) [SW 209418], the solubility in data set [1] (setting [3]) was found to be 5.9 µg/mL (≈ 13.3 µM).
On to `CCCC[S+]([O-])c1sc2nc(-c3nccs3)cc(-c3ccc(OCCO)cc3)c2c1N` (stereo not shown) [SW 211688], for which the solubility is 1180 µg/mL (≈ 2490 µM) in data set [1] (setting [2]) and 115 µg/mL (≈ 243 µM) in data set [1] (setting [3]).
Consider `CCCC[S+]([O-])c1sc2nc(-c3nccs3)cc(-c3ccc(COC(=O)NCCCl)cc3)c2c1N` (stereo not shown) [SW 213064, 4-(3-amino-2-(butylsulfinyl)-6-(thiazol-2-yl)thieno[2,3-b]pyridin-4-yl)benzyl (2-chloroethyl)carbamate], for which, at recombinant 15-PGDH (setting [5]), the IC50 is 5.9 nM. In data set [1] (aqueous buffer, pH 7 citrate buffer solution, read-out: pH 7 solubility), the solubility was 8.27 µg/mL (≈ 15.1 µM).
Consider `COCC[S+]([O-])c1sc2nc(-c3nccs3)cc(-c3nccs3)c2c1N` (stereo not shown) [SW 213156], for which the IC50 on recombinant 15-PGDH (setting [5]) turned out to be 5.7 nM. The solubility in data set [1] (setting [3]) was found to be 3.8 µg/mL (≈ 8.99 µM).
On to `CCCC[S+]([O-])c1sc2nc(-c3nccs3)cc(-c3ccc(C(C)O)cc3)c2c1N` (stereo not shown) [SW 217778, 1-(4-(3-amino-2-(butylsulfinyl)-6-(thiazol-2-yl)thieno[2,3-b]pyridin-4-yl)phenyl)ethan-1-ol], for which, at recombinant 15-PGDH (setting [5]), the IC50 amounted to 2.2 nM. Also, the solubility in data set [1] (setting [3]) was 7.4 µg/mL (≈ 16.2 µM).
As for `CCCC[S+]([O-])c1sc2nc(-c3nc(C)cs3)cc(-c3cnc(C)n3C)c2c1N` (stereo not shown) [SW 217779, 2-(butylsulfinyl)-4-(1,2-dimethyl-1H-imidazol-5-yl)-6-(4-methylthiazol-2-yl)thieno[2,3-b]pyridin-3-amine], the solubility in data set [1] (setting [2]) was 597 µg/mL (≈ 1340 µM); in data set [1] (setting [3]) it was 30.5 µg/mL (≈ 68.4 µM).
As to `CCCC[S+]([O-])c1sc2nc(-c3nccs3)cc(-c3cncn3C)c2c1N` (stereo not shown) [SW 217781, 2-(butylsulfinyl)-4-(1-methyl-1H-imidazol-5-yl)-6-(thiazol-2-yl)thieno[2,3-b]pyridin-3-amine], the IC50 at recombinant 15-PGDH (setting [5]) amounted to 1.9 nM. The figures for the solubility in data set [1] (setting [2]) and in data set [1] (setting [3]) were 71.8 µg/mL (≈ 172 µM) and 14 µg/mL (≈ 33.5 µM), respectively.
`CCCC[S+]([O-])c1sc2nc(-c3nccs3)cc(-c3ccc(OCCOC(=O)CCC(=O)O)cc3)c2c1N` (stereo not shown) [SW 217999, 4-(2-(4-(3-amino-2-(butylsulfinyl)-6-(thiazol-2-yl)thieno[2,3-b]pyridin-4-yl)phenoxy)ethoxy)-4-oxobutanoic acid]: the IC50 at recombinant 15-PGDH (setting [5]) is 6.2 nM. The solubility in data set [1] (setting [3]) was found to be 747 µg/mL (≈ 1300 µM).
`CCCC[S+]([O-])c1sc2nc(-c3cccs3)cc(-c3ccccc3)c2c1O` (stereo not shown) [SW 218399, 2-(butylsulfinyl)-4-phenyl-6-(thiophen-2-yl)thieno[2,3-b]pyridin-3-ol]: at recombinant 15-PGDH (setting [5]), the IC50 was determined as 135 nM.
Consider `Nc1c(S(=O)(=O)N2CCCCC2)sc2nc(-c3cccs3)cc(-c3ccccc3)c12` [SW 218400], for which, on recombinant 15-PGDH (setting [5]), the IC50 was greater than 100 nM. Moreover, the “extent of 15-PGDH inhibition (remark)” value on recombinant 15-PGDH was “incomplete inhibition”.
As to `CCCC[S+]([O-])c1sc2nc(-c3nccs3)cc(-c3c(C)ncn3C)c2c1N` (stereo not shown) [SW 218475, 2-(butylsulfinyl)-4-(1,4-dimethyl-1H-imidazol-5-yl)-6-(thiazol-2-yl)thieno[2,3-b]pyridin-3-amine], on recombinant 15-PGDH (setting [5]), the IC50 was found to be 3.4 nM.
Same read-out and setting: next, `CCCC[S+]([O-])c1sc2nc(-c3nccs3)cc(-c3cnc(CC)n3C)c2c1N` (stereo not shown) [SW 218476, 2-(butylsulfinyl)-4-(2-ethyl-1-methyl-1H-imidazol-5-yl)-6-(thiazol-2-yl)thieno[2,3-b]pyridin-3-amine]: 2 nM; `CCCC[S+]([O-])c1sc2nc(-c3nccs3)cc(-c3ncn(C)c3C)c2c1N` (stereo not shown) [SW 218477, 2-(butylsulfinyl)-4-(1,5-dimethyl-1H-imidazol-4-yl)-6-(thiazol-2-yl)thieno[2,3-b]pyridin-3-amine]: 3.8 nM; `CCCC[S+]([O-])c1sc2nc(-c3nccs3)cc(-c3cnc(C)n3C3CC3)c2c1N` (stereo not shown) [SW 218478, 2-(butylsulfinyl)-4-(1-cyclopropyl-2-methyl-1H-imidazol-5-yl)-6-(thiazol-2-yl)thieno[2,3-b]pyridin-3-amine]: 2.4 nM.
Consider `Nc1c([S+]([O-])C2CCCCC2)sc2nc(-c3cccs3)cc(-c3ccccc3)c12` (stereo not shown) [SW 218520, 2-(cyclohexylsulfinyl)-4-phenyl-6-(thiophen-2-yl)thieno[2,3-b]pyridin-3-amine], for which the IC50 on recombinant 15-PGDH (setting [5]) worked out at 3.3 nM.
Still for that read-out and setting: under `CCCC[S+]([O-])c1sc2nc(-c3nccs3)cc(-c3nccn3CC)c2c1N` (stereo not shown) [SW 218521, 2-(butylsulfinyl)-4-(1-ethyl-1H-imidazol-2-yl)-6-(thiazol-2-yl)thieno[2,3-b]pyridin-3-amine] stands 2.2 nM; under `CCCC[S+]([O-])c1sc2nc(-c3nccs3)cc(-c3nc(C)c(C)n3C)c2c1N` (stereo not shown) [SW 218522, 2-(butylsulfinyl)-6-(thiazol-2-yl)-4-(1,4,5-trimethyl-1H-imidazol-2-yl)thieno[2,3-b]pyridin-3-amine], 2.5 nM.
